Test results taken from ChEMBL document CHEMBL5046271, “Design, Synthesis, and Biological Evaluation of 2-Formyl Tetrahydronaphthyridine Urea Derivatives as New Selective Covalently Reversible FGFR4 Inhibitors” (J Med Chem, 2022).

What was measured:
[1] = biological target: Fibroblast growth factor receptor 2 (Homo sapiens, UniProt P21802); assay: Inhibition of FGFR2 (unknown origin) using Tyr 04 peptide substrate measured after 2 hrs by FRET assay
[2] = biological target: Fibroblast growth factor receptor 3 (Homo sapiens, UniProt P22607); assay: Inhibition of FGFR3 (unknown origin) using Tyr 04 peptide substrate measured after 2 hrs by FRET assay
[3] = biological target: Fibroblast growth factor receptor 1 (Homo sapiens, UniProt P11362); assay: Inhibition of FGFR1 (unknown origin) using Tyr 04 peptide substrate measured after 2 hrs by FRET assay
[4] = tested on: NCI-H1581; assay: Cytotoxicity against human NCI-H1581 cells harboring FGF19/FGFR4 assessed as inhibition of cell growth
[5] = tested on: Hep 3B2; assay: Cytotoxicity against human Hep 3B2.1-7 cells harboring FGF19/FGFR4 assessed as inhibition of cell growth; conditions: Hep3B
[6] = tested on: MDA-MB-453; assay: Cytotoxicity against human MDA-MB-453 cells harboring FGF19/FGFR4 assessed as inhibition of cell growth
[7] = tested on: Huh-7; assay: Cytotoxicity against human Huh-7 cells harboring FGF19/FGFR4 assessed as inhibition of cell growth

Fibroblast growth factor receptor 1, sequence (P11362 whole entry): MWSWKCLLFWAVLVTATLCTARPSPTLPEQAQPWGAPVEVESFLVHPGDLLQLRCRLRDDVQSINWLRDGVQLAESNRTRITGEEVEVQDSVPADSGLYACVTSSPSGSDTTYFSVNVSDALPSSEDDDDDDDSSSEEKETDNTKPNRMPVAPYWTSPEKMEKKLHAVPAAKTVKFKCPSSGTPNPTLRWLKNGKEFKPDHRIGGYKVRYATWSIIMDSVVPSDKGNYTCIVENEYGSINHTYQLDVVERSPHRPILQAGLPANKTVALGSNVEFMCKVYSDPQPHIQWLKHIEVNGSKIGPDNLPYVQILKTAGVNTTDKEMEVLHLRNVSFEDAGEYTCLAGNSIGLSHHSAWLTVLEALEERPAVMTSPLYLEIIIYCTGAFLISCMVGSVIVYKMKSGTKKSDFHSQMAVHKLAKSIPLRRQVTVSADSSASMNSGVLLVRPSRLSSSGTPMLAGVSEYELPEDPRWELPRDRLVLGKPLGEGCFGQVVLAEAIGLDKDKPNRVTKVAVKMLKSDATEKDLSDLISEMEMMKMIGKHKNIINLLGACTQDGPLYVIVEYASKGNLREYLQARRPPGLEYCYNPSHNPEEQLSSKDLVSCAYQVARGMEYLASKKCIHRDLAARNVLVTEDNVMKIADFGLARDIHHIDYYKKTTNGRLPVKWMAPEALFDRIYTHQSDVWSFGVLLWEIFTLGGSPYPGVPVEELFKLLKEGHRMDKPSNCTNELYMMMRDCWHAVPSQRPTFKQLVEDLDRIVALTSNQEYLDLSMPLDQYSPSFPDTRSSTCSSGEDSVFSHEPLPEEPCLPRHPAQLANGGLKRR
Fibroblast growth factor receptor 3, sequence (P22607 whole entry): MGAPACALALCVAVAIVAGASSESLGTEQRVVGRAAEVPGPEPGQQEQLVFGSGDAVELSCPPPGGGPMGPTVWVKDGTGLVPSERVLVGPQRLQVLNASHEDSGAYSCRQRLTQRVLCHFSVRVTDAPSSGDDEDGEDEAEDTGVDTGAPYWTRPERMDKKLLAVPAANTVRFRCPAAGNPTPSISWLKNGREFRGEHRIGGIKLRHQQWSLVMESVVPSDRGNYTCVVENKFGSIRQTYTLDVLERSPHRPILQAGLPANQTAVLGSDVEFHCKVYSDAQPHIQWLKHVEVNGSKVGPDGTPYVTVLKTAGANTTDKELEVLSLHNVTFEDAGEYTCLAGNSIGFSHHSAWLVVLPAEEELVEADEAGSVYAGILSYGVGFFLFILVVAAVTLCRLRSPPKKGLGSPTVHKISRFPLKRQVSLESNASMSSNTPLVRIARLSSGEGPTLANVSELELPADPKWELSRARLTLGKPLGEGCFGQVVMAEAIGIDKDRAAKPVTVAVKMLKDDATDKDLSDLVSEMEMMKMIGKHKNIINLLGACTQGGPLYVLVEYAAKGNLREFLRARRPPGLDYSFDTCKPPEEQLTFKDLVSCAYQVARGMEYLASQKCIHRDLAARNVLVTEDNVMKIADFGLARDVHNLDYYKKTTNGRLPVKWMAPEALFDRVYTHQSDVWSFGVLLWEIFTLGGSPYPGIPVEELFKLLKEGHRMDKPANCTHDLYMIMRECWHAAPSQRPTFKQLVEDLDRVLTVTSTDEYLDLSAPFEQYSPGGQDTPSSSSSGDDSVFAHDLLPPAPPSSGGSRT
Fibroblast growth factor receptor 2, sequence (P21802 whole entry): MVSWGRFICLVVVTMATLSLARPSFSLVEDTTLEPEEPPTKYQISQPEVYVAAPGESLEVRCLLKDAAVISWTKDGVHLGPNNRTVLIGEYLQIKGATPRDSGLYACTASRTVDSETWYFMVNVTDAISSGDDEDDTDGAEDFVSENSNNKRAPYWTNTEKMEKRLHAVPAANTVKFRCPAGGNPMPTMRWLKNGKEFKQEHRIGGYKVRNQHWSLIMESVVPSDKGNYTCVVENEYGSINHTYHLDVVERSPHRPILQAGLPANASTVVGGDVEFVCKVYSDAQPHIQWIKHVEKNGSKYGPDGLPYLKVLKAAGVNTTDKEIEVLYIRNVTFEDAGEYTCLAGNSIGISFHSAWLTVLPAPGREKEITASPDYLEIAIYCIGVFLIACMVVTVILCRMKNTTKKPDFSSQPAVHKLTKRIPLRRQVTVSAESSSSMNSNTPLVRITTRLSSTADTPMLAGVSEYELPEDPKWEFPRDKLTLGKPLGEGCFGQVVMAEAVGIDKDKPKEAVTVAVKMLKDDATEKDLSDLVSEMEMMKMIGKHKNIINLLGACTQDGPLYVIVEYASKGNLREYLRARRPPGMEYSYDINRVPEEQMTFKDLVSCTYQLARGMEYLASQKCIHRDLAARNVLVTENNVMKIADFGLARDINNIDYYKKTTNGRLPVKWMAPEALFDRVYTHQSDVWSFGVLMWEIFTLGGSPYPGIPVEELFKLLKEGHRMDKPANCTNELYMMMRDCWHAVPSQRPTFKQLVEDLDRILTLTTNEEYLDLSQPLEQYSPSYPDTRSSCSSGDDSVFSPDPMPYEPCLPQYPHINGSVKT

Row | Structure (SMILES) | IC50 [1] [µM] | IC50 [2] [µM] | IC50 [3] [µM] | IC50 [4] [µM] | IC50 [5] [µM] | IC50 [6] [µM] | IC50 [7] [µM]
1 | CC(C)Oc1cc(NC(=O)N2CCCc3ccc(C=O)nc32)ncc1C#Cc1cncn1C | > 10 | > 10 | > 10 |  |  |  | 
2 | CC(C)Oc1cc(NC(=O)N2CCCc3ccc(C=O)nc32)ncc1C#Cc1cncnc1 | > 10 | > 10 | > 10 |  |  |  | 
3 | C=CC(=O)Nc1cccc(C)c1Nc1ncc2cc(-c3c(Cl)c(OC)cc(OC)c3Cl)ccc2n1 | > 10 | > 10 | > 10 | > 43.3 | 0.55 | 0.12 | 
4 | COC[C@@H](C)Nc1cc(NC(=O)N2CCCc3ccc(C=O)nc32)ncc1C#Cc1cccnc1 | > 10 | > 10 | > 10 |  |  |  | 
5 | CC(C)Oc1cc(NC(=O)N2CCCc3cc(CN4CCN(C)CC4=O)c(C=O)nc32)ncc1C#Cc1ccccn1 | > 10 | > 10 | > 10 | > 3 | 0.658 | 1.33 | 0.00624
6 | COCCNc1cc(NC(=O)N2CCCc3ccc(C=O)nc32)ncc1C#N | > 10 | > 10 | > 10 |  |  |  | 
7 | COc1cc(C#Cc2cnc(NC(=O)N3CCCc4ccc(C=O)nc43)cc2OC(C)C)cc(OC)c1 | > 10 | > 10 | > 10 |  |  |  | 
8 | CC(C)Oc1cc(NC(=O)N2CCCc3ccc(C=O)nc32)ncc1C#Cc1cccc(C#N)c1 | > 10 | > 10 | > 10 |  |  |  | 
9 | COc1cc(C#Cc2cnc(NC(=O)N3CCCc4cc(CN5CCN(C)CC5=O)c(C=O)nc43)cc2OC(C)C)cc(OC)c1 | > 10 | > 10 | > 10 | > 3 | 1.34 | 0.466 | 0.0658
10 | CC(C)Oc1cc(NC(=O)N2CCCc3ccc(C=O)nc32)ncc1C#Cc1ccccc1 | > 10 | > 10 | > 10 |  |  |  | 
11 | COCCNc1cc(NC(=O)N2CCCc3cc(CN4CCN(C)CC4=O)c(C=O)nc32)ncc1C#N [FGF401] |  |  |  | > 3 | 0.21 | 0.92 | 0.0089
12 | CC(C)Oc1cc(NC(=O)N2CCCc3ccc(C=O)nc32)ncc1C#Cc1cccnc1 | > 10 | > 10 | > 10 |  |  |  | 
13 | COCCOc1cc(NC(=O)N2CCCc3ccc(C=O)nc32)ncc1C#Cc1cccnc1 | > 10 | > 10 | > 10 |  |  |  | 
14 | COc1cc(OC)c(Cl)c(C#Cc2cnc(NC(=O)N3CCCc4ccc(C=O)nc43)cc2OC(C)C)c1Cl | > 10 | > 10 | > 10 |  |  |  | 
15 | CC(C)Oc1cc(NC(=O)N2CCCc3ccc(C=O)nc32)ncc1C#Cc1ccncc1 | > 10 | > 10 | > 10 |  |  |  | 
16 | O=Cc1ccc2c(n1)N(C(=O)Nc1cc(F)c(C#Cc3ccccn3)cn1)CCC2 | > 10 | > 10 | > 10 |  |  |  | 

Row | Structure (SMILES) | IC50 [1] [µM] | IC50 [2] [µM] | IC50 [3] [µM] | IC50 [4] [µM] | IC50 [5] [µM] | IC50 [6] [µM] | IC50 [7] [µM]
17 | CC(C)Oc1cc(NC(=O)N2CCCc3ccc(C=O)nc32)ncc1C#Cc1ccc(C#N)cc1 | > 10 | > 10 | > 10 |  |  |  | 
18 | CC(C)Oc1cc(NC(=O)N2CCCc3ccc(C=O)nc32)ncc1C#Cc1cnccn1 | > 10 | > 10 | > 10 |  |  |  | 
19 | O=Cc1ccc2c(n1)N(C(=O)Nc1cc(NC3CC3)c(C#Cc3ccccn3)cn1)CCC2 | > 10 | > 10 | > 10 |  |  |  | 
20 | COCCNc1cc(NC(=O)N2CCCc3ccc(C=O)nc32)ncc1C#Cc1ccccn1 | > 10 | > 10 | > 10 |  |  |  | 
21 | COCCNc1cc(NC(=O)N2CCCc3ccc(C=O)nc32)ncc1C#Cc1cccnc1 | > 10 | > 10 | > 10 |  |  |  | 
22 | COc1cc(CCc2cnc(NC(=O)N3CCCc4ccc(C=O)nc43)cc2OC(C)C)cc(OC)c1 | > 10 | > 10 | > 10 |  |  |  | 
23 | COc1cc(CCc2cnc(NC(=O)N3CCCc4cc(CN5CCN(C)CC5=O)c(C=O)nc43)cc2OC(C)C)cc(OC)c1 | > 10 | > 10 | > 10 | > 3 | 1.45 | 2.26 | 0.0149
24 | O=Cc1ccc2c(n1)N(C(=O)Nc1cc(NC3CCCC3)c(C#Cc3ccccn3)cn1)CCC2 | > 10 | > 10 | > 10 |  |  |  | 
25 | CC(C)CNc1cc(NC(=O)N2CCCc3ccc(C=O)nc32)ncc1C#Cc1ccccn1 | > 10 | > 10 | > 10 |  |  |  | 
26 | COC[C@H](C)Nc1cc(NC(=O)N2CCCc3ccc(C=O)nc32)ncc1C#Cc1cccnc1 | > 10 | > 10 | > 10 |  |  |  | 
27 | COCCOc1cc(NC(=O)N2CCCc3ccc(C=O)nc32)ncc1C#Cc1ccccn1 | > 10 | > 10 | > 10 |  |  |  | 
28 | O=Cc1ccc2c(n1)N(C(=O)Nc1cc(F)c(C#Cc3cccnc3)cn1)CCC2 | > 10 | > 10 | > 10 |  |  |  | 
29 | COc1cccc(CCc2cnc(NC(=O)N3CCCc4ccc(C=O)nc43)cc2OC(C)C)c1 | > 10 | > 10 | > 10 |  |  |  | 
30 | COc1cc(OC)cc(-c2cnc(NC(=O)N3CCCc4ccc(C=O)nc43)cc2OC(C)C)c1 | > 10 | > 10 | > 10 |  |  |  | 
31 | COc1cccc(C#Cc2cnc(NC(=O)N3CCCc4ccc(C=O)nc43)cc2OC(C)C)c1 | > 10 | > 10 | > 10 |  |  |  | 
32 | CC(C)Oc1cc(NC(=O)N2CCCc3ccc(C=O)nc32)ncc1C#Cc1ccccn1 | > 10 | > 10 | > 10 |  |  |  | 
